Data from patent publication US5167616A, “Iontophoretic delivery method” (priority 1989, dated 1992).
Values joined by “and” are separate entries in the source; they are usually repeats but may differ in a detail not shown here. Equal entries are not always repeated.

Assay: Iontophoretic transdermal flux of metoclopramide through human cadaver skin (heat-stripped epidermis, two-compartment permeation test cell)
Type: in vitro ADME
Conditions: for Ratio of Average Flux-to-Power: power from voltage at 3.75 hours
Protocol: The transdermal flux of metoclopramide HC1 through samples of human cadaver back skin was measured using a polycarbonate test cell in which the skin sample to be tested is secured between a donor compartment and a receptor compartment. […] The area of the skin samples available for transport was 1.26 cm^2. The test cell device was maintained at a temperature of 32° C. using an aluminum block heat exchanger. An anode comprising a disk of silver foil having a thickness of 0.025 mm was present in the donor compartment while a cathode comprising a sintered disk of powdered silver metal and silver chloride was present in the receptor compartment. Thus, the reduction of silver ions to silver metal occurred at the cathode, while the oxidation of silver to silver ions took place at the anode.
Human cadaver skin was used for the permeation studies. Before securing the skin samples between the donor and the receptor compartment of the test cell, the skin was first heat-stripped by immersing the skin sample in water maintained at 60° C. for 90 seconds allowing the epidermis layer to be separated from the dermis. Circular epidermis samples having a diameter of 2.22 cm were cut using a gasket cutting punch. The epidermis samples were then mounted in the permeation test cell with the stratum corneum side facing the donor compartment.
The electrodes of the test cell were then connected to a Model 363 Potentiostat/Galvanostat, made by EG&G Princeton Applied Research, Princeton, NJ, which supplied a constant level of direct current of 126 μA or 100 μA/cm^2.
The test cell was in operation for four hours with each skin sample. During operation, metoclopramide was iontophoretically delivered from the donor solution through the cadaver skin into the receptor solution. The receptor solution was sampled once every hour over the four hour period. The entire volume (2 ml) of receptor solution was collected and replaced with fresh solution at each sampling point. The metoclopramide concentration in the receptor solution was determined by UV absorbance at 310 nm using a spectrophotometer manufactured by Hewlett Packard, of Palo Alto, CA, Model No. 8452A. Each flux data point shown in FIG. 4 was an average value from three skin specimens, all three specimens having been taken from the same cadaver.
The voltage for each skin sample was monitored throughout the experiment. A representative voltage was measured at 3.75 hours after start of operation for each skin sample and is recorded in Table 2. The power was calculated by multiplying the measured voltage at 3.75 hours by the applied current (i.e., 100 μA/cm^2).
The same equipment and procedures described in Example 1 were used to test human cadaver skin taken from the following sites of the same cadaver tested in Example 1: abdomen, upper arm, forearm, chest and hip/thigh. The average flux of metoclopramide through these skin sites is also plotted in FIG. 4. […] In general, the flux of metoclopramide through back skin was about 50% to 150% higher than the metoclopramide flux through the other tested skin sites.

CCN(CC)CCNC(=O)c1cc(Cl)c(N)cc1OC [metoclopramide]
Flux through back skin, increase over flux through the other tested skin sites: 50-150% | Flux through human back skin compared with the other tested skin sites (in words): significantly higher flux | Average Ratio of Average Flux-to-Power (Abdomen skin, mean of 3 samples): 336 μg/cm^2 · hr .multido | Ratio of Average Flux-to-Power (Abdomen skin): 347 μg/cm^2 · hr .multido and 277 μg/cm^2 · hr .multido and 384 μg/cm^2 · hr .multido | Average Ratio of Average Flux-to-Power (Back skin, mean of 6 samples): 431 μg/cm^2 · hr .multido | Average Ratio of Average Flux-to-Power (Chest skin, mean of 3 samples): 204 μg/cm^2 · hr .multido | Ratio of Average Flux-to-Power (Chest skin): 205 μg/cm^2 · hr .multido and 196 μg/cm^2 · hr .multido and 211 μg/cm^2 · hr .multido | Average Ratio of Average Flux-to-Power (Forearm skin, mean of 3 samples): 230 μg/cm^2 · hr .multido | Average Ratio of Average Flux-to-Power (Hip/Thigh skin, mean of 3 samples): 222 μg/cm^2 · hr .multido | Ratio of Average Flux-to-Power (Hip/Thigh skin): 164 μg/cm^2 · hr .multido and 305 μg/cm^2 · hr .multido and 197 μg/cm^2 · hr .multido | Average Ratio of Average Flux-to-Power (Upper Arm skin, mean of 2 samples): 307 μg/cm^2 · hr .multido | Average ratio of average flux-to-power, ranking of skin sites (in words) (back skin, followed by the abdomen and upper arm, Table 2): highest average ratio of average flux-to-power
